This data set deals with HT-1080 fibrosarcoma cells. The experiment in a line: HT-1080 single-concentration cell viability screen (Cell Titer Glo). It is filed as cell-based. The settings on record: 10 μM compound, 48 hours, duplicate, fraction of control. The text has this:
To identify potential covalent inhibitors of GPX4, we screened a panel of 294 diverse small molecules from the Enamine covalent inhibitor library (Catalog No. CSL-10480-0-Z-10, Enamine, Monmouth, NJ). Each compound contains either a chloroacetamide or acrylamide moiety theoretically capable of forming a covalent bond with a selenocysteine. The small molecule compounds were selected for a diversity of backbone structures. The screening protocol used the cell viability assay Cell Titer Glo® (available from Promega, Madison, WI). Cell Titer Glo® is a luminescent cell viability that determines the number of viable cells in culture by quantifying ATP, which indicates the presence of metabolically active cells. Briefly, HT-1080 fibrosarcoma cells were plated 24 hours prior to treatment with 10 µM of each compound in the screening panel. Cell Titer Glo® was used to read out cell viability after 48 hours of compound exposure. Data was collected in duplicate.
To determine whether similar molecules could offer other starting points for a medicinal chemistry campaign, we screened 95 additional compounds that contain a similar base structure to that of 8216. Briefly, HT-1080 fibrosarcoma cells were treated with 10 µM of a compound for 48 hours and cell viability was measured by Cell Titer Glo®. Data was collected in duplicate. […]
Consider `O=C(CCl)N(Cc1nc2ccsc2c(=O)[nH]1)C1CC1` [Compound Z3217399415], for which the “Average relative cell viability” value is on record as 1.255.

Regarding `O=C(CCl)N(Cc1ccccc1)Cc1cc2n(n1)CCCC2` [Compound Z4323310732], the “Average relative cell viability” value was 0.05332.

Consider `COc1ccc(CN(CC2CC(C)=NO2)C(=O)CCl)cc1` (stereo not shown) [Compound Z3837506617], for which the “Average relative cell viability” value came to 0.3267.

Consider `O=C(CCl)N(Cc1cnn(C2CCCCC2)c1)CC1(c2ccccc2)CC1` [Compound Z4425211258], for which the “Average relative cell viability” value came to 0.001938.

`O=C(CCl)N(Cc1ccccc1)c1nc(-c2ccc(Cl)cc2)cs1` [Compound Z56837054]: the “Average relative cell viability” value amounted to 0.001992.

On to `O=C(CCl)N(Cc1cccc2ccoc12)C1CCCOCC1` (stereo not shown) [Compound Z4323385212], for which the “Average relative cell viability” value came out at 0.003768.

As to `O=C(CCl)N(Cc1ccccc1)CC1(O)CCOC1` (stereo not shown) [Compound Z1687602192], the “Average relative cell viability” value is reported as 0.1445.

In the case of `Cc1ccc2sc(N(Cc3ccccc3)C(=O)CCl)nc2c1C` [Compound Z147647684], the “Average relative cell viability” value worked out at 0.006576.

For the molecule `COc1ccc(CN(C(=O)CCl)C2CCOC(C)C2)cc1C` (stereo not shown) [Compound Z4323373087], the “Average relative cell viability” value came out at 0.0167.

For `O=C(CCl)N(Cc1cccs1)C1Cc2ccccc2C1` [Compound Z3766262414], the “Average relative cell viability” value was determined as 0.5481.

For `Cc1cccc(N(Cc2ccccc2)C(=O)CCl)c1` [Compound Z57052885], the “Average relative cell viability” value is listed as 0.002244.

Take `Cn1nnc(CN(C(=O)CCl)C2CCCCCCC2)n1` [Compound Z4323320274]: the “Average relative cell viability” value is 0.002922.

Take `O=C(CCl)N(Cc1ccnn1C1CCC1)C1CC=CCC1` (stereo not shown) [Compound Z4323362848]: the “Average relative cell viability” value was found to be 0.001626.

For the molecule `CC1(N(Cc2ccc3c(c2)OCO3)C(=O)CCl)CCCC1` [Compound Z3766260223], the “Average relative cell viability” value was determined as 0.002238.

Take `O=C(CCl)N(Cc1ccc2c(c1)OCCO2)Cc1ncoc1C1CCC1` [Compound Z4425210448]: the “Average relative cell viability” value worked out at 0.00756.

In the case of `O=C(CCl)N(Cc1ccns1)c1ccc2c(c1)OCCO2` [Compound Z3837046637], the “Average relative cell viability” value worked out at 0.00972.

Take `CCN1CCCC(CN(C)C(=O)CCl)C1c1cnn(C)c1` (stereo not shown) [Compound Z3766270794]: the “Average relative cell viability” value is 0.003474.

In the case of `CC#CC(=O)N(Cc1ccc(-n2cncn2)cc1)C1CC1` [Compound Z2020497058], the “Average relative cell viability” value was determined as 1.089.

In the case of `COc1nc2ccc(CN(Cc3ccc(F)cc3)C(=O)CCl)cc2s1` [Compound Z4425210756], the “Average relative cell viability” value is 0.00393.

As for `Cn1ccc(N(Cc2ccccc2)C(=O)CCl)n1` [Compound Z4170009630], the “Average relative cell viability” value was 0.08916.

On to `O=C(CCl)N(Cc1cc(F)ccc1F)CC1CCOCC1` [Compound Z3837255186], for which the “Average relative cell viability” value stood at 0.1331.

As for `O=C(CCl)N(CCc1ccc(F)cc1)Cc1cnc(C2CCOCC2)o1` [Compound Z4425211012], the “Average relative cell viability” value was found to be 0.0748.

Regarding `O=C(CCl)N(Cc1ccccc1)c1ccccc1` [Compound Z199424090], the “Average relative cell viability” value is on record as 0.00039.

As for `C=CCN1CCC(N(Cc2ccc(CC)o2)C(=O)CCl)CC1` [Compound Z4323341765], the “Average relative cell viability” value is given as 0.7008.

On to `O=C(CCl)N(Cc1ccc(F)cc1)c1nc(-c2ccccc2)cs1` [Compound Z147647938], for which the “Average relative cell viability” value came out at 0.000936.

As to `O=C(CCl)N(Cc1ccccc1)Cc1ccc(F)cc1` [Compound Z381549666], the “Average relative cell viability” value came out at 0.001836.

Turning to `COc1ccc2nc(CN(Cc3ccc(F)cc3)C(=O)CCl)sc2c1` [Compound Z4425210755], the “Average relative cell viability” value was determined as 0.002562.

Take `O=C(CCl)N(Cc1ccc2c(c1)CCC2)CC1(CCO)CC1` [Compound Z4323486432]: the “Average relative cell viability” value is recorded as 0.004428.

As to `O=C(CCl)N(CC1=CCCCC1)Cc1cc(-c2ccc(Cl)cc2)on1` [Compound Z4425210932], the “Average relative cell viability” value was determined as 0.001926.

Consider `O=C(CCl)N(Cc1ccccc1)Cc1ccco1` [Compound Z108565162], for which the “Average relative cell viability” value came out at 0.005394.

With `Cc1cc(CN(C(=O)CCl)C2CCCC2)c2ccccc2n1` [Compound Z1562139496], the “Average relative cell viability” value worked out at 0.000174.

Consider `COCCN(Cc1ccccc1)C(=O)CCl` [Compound Z147647648], for which the “Average relative cell viability” value is recorded as 0.1007.

As to `Cc1cc(CN(Cc2ccn(C)n2)C(=O)CCl)ccc1F` [Compound Z3837152585], the “Average relative cell viability” value amounted to 0.007686.

Regarding `O=C(CCl)N(Cc1cnn(-c2ccccc2)c1)C1CC1` [Compound Z3629871044], the “Average relative cell viability” value is reported as 0.001764.

For the molecule `CC1(C)CC(N(Cc2ccccc2)C(=O)CCl)C(C)(C)O1` (stereo not shown) [Compound Z3766271747], the “Average relative cell viability” value is listed as 0.005616.

For the molecule `O=C(CCN(Cc1ccc2c(c1)CCOC2)C(=O)CCl)NC1CCCC1` [Compound Z4425210882], the “Average relative cell viability” value came out at 0.1465.

As for `CN(Cc1cnc(N(C)C)nc1)C(=O)CCl` [Compound Z2596884436], the “Average relative cell viability” value stood at 0.4026.

As to `COC1CCC(N(Cc2cc(C)oc2C)C(=O)CCl)CC1` (stereo not shown) [Compound Z4323386801], the “Average relative cell viability” value is listed as 0.01527.

With `Cc1ccc(CN(Cc2cnn(C)c2)C(=O)CCl)cc1C` [Compound Z3837366035], the “Average relative cell viability” value is on record as 0.531.

For the molecule `Cc1ccsc1CN(C(=O)CCl)C1CCN(C(C)C)C1=O` (stereo not shown) [Compound Z4323355648], the “Average relative cell viability” value was 0.5691.

In the case of `N#Cc1ccc(CN(C(=O)CCl)C2CC2)c(F)c1` [Compound Z3952175125], the “Average relative cell viability” value is reported as 0.8876.

`CN(Cc1nc2c(cnn2C)c(=O)[nH]1)C(=O)CCl` [Compound Z3337549802]: the “Average relative cell viability” value is recorded as 1.034.

On to `O=C(CCl)N(Cc1nc(C2CCCCCC2)no1)C1CC1` [Compound Z3766269910], for which the “Average relative cell viability” value turned out to be 0.002904.

For `CC(C)(C)n1nnc(CN(Cc2cccc(C3CC3)c2F)C(=O)CCl)n1` [Compound Z4425210960], the “Average relative cell viability” value is 0.01925.

`Cc1cc(F)ccc1N(Cc1ccnn1C(C)C)C(=O)CCl` [Compound Z3837096793]: the “Average relative cell viability” value worked out at 0.1701.

Turning to `CCOC(=O)c1sc(N(Cc2ccccc2)C(=O)CCl)nc1C` [Compound Z56837076], the “Average relative cell viability” value is 0.004698.

On to `Cc1scc(CN(Cc2ccc3c(c2)OCCCO3)C(=O)CCl)c1C` [Compound Z4425210974], for which the “Average relative cell viability” value came out at 0.001284.

Consider `COC1(CN(Cc2ccn(C)n2)C(=O)CCl)CCCCC1` [Compound Z3837644318], for which the “Average relative cell viability” value is 0.7407.

With `COc1cccc(CN(CC2CCCO2)C(=O)CCl)c1F` (stereo not shown) [Compound Z3837050450], the “Average relative cell viability” value is on record as 0.5148.

With `O=C(CCl)N(Cc1ccc(Cn2cccn2)cc1)CC1CC1` [Compound Z3837267295], the “Average relative cell viability” value turned out to be 0.002112.

For the molecule `COc1cc(CN(C(=O)CCl)C2CCCOC2)ccc1C` (stereo not shown) [Compound Z4323349920], the “Average relative cell viability” value is 0.002028.

In the case of `CCn1cc(CN(C(=O)CCl)C2CC2)c(C)n1` [Compound Z3887631385], the “Average relative cell viability” value stood at 0.7938.

As to `O=C(CCl)N(Cc1noc2c1CCCC2)c1ccccc1F` [Compound Z4323314193], the “Average relative cell viability” value was 0.00483.

For `O=C(CCl)N(Cc1ccco1)C1=CCCCC1` [Compound Z89264994], the “Average relative cell viability” value came out at 0.01228.

As to `Cn1cc(CN(C(=O)CCl)c2ccc(F)cc2)cn1` [Compound Z3766264621], the “Average relative cell viability” value was 0.02152.

For the molecule `Cc1csc(CN(C(=O)CCl)c2cccc(F)c2C)n1` [Compound Z3837197646], the “Average relative cell viability” value was 0.01316.

Consider `O=C(CCl)N(Cc1ccccc1O)Cc1ccccc1O` [Compound Z3952174992], for which the “Average relative cell viability” value amounted to 0.1517.

Take `O=C(CCl)N(Cc1cccs1)C1CCS(=O)(=O)C1` (stereo not shown) [Compound Z90122115]: the “Average relative cell viability” value was 0.05782.

Take `CC(C)n1nccc1CN(CC1CCCC1)C(=O)CCl` [Compound Z3837300268]: the “Average relative cell viability” value came to 0.00828.

With `Cc1cc(CN(C(=O)CCl)c2ccc(F)cc2)nn1C` [Compound Z3837055210], the “Average relative cell viability” value is 0.001584.

Regarding `O=C(CCl)N(Cc1ccccc1)c1nc(-c2ccc(Br)cc2)cs1` [Compound Z56926666], the “Average relative cell viability” value is 0.008622.

With `O=C(CCl)N(Cc1ccccc1)c1nc2c(s1)CCCC2` [Compound Z147647668], the “Average relative cell viability” value amounted to 0.005838.

Consider `O=C(CCl)N(CCc1ccccc1)Cc1ccccc1` [Compound Z56891378], for which the “Average relative cell viability” value was determined as 0.001872.

On to `Cl.O=C(CCl)N(Cc1cn2ccccc2n1)C1CC1` [Compound Z4283095766], for which the “Average relative cell viability” value came out at 0.9342.

For the origin of these results see patent publication US20240315994A1, “SMALL MOLECULE MODULATORS OF FERROPTOSIS” (ARPEGGIO BIOSCIENCES, INC., priority 2021, published 2024).
